Results from US9833497B2, “Human originated EGF domain proteins and use of the same” (CHENGDU SOURCEBIO LIMITED-LIABILITY COMPANY, priority 2013, dated 2017).

Columns and labels:
Assay type in all cases: cell-based
E. coli BL21 = test: MIC against Gram-negative bacteria: E. coli BL21; settings: 5×10^5 CFU/mL; for MIC E. coli BL21: two-fold serial dilution
Outline: (§1)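 MIC, the lowest recombinant protein concentration giving no bacterial growth, found by two-fold serial dilution of human EGF-domain proteins in triplicate. Inoculum 5×10^5 CFU/mL in LB from cultures at McFarland 0.5; plates incubated at 37° C, 175 rpm shaking.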

Aeromonas hydrophila = test: MIC against Gram-negative bacteria: Aeromonas hydrophila; settings: 5×10^5 CFU/mL; for MIC A. hydrophila: two-fold serial dilution
Outline: as §1

Serratia marcescens = test: MIC against Gram-negative bacteria: Serratia marcescens; settings: 5×10^5 CFU/mL; for MIC S. marcescens: two-fold serial dilution
Outline: as §1

Pseudomonas aeruginosa = test: MIC against Gram-negative bacteria: Pseudomonas aeruginosa; settings: 5×10^5 CFU/mL; for MIC P. aeruginosa: two-fold serial dilution
Outline: as §1

Proteus vulgaris = test: MIC against Gram-negative bacteria: Proteus vulgaris; settings: 5×10^5 CFU/mL; for MIC P. vulgaris: two-fold serial dilution
Outline: as §1

E. coli DH5α = test: Antibacterial activity: MIC and growth curve against E. coli DH5α in 96-well plate; settings: minimal inhibitory concentration against E. coli DH5α; 96-well plate, 5×10^5 CFU/mL, 37° C., judged after 8 h
Outline: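 Log-phase bacteria (OD600 ~0.5) resuspended in LB at 5×10^5 CFU/mL, exposed to recombinant protein at 50, 25, 12.5 μg/mL final in triplicate, 37 °C shaking at 175 rpm. OD600 read every 30 min; MIC is lowest concentration showing no growth.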

Klebsiella pneumonia = test: MIC against Gram-negative bacteria: Klebsiella pneumonia; settings: 5×10^5 CFU/mL; for MIC K. pneumonia: two-fold serial dilution
Outline: as §1

Moraxella catarrhalis = test: MIC against Gram-negative bacteria: Moraxella catarrhalis; settings: 5×10^5 CFU/mL; for MIC M. catarrhalis: two-fold serial dilution
Outline: as §1

Proteus mirabilis = test: MIC against Gram-negative bacteria: Proteus mirabilis; settings: 5×10^5 CFU/mL; for MIC P. mirabilis: two-fold serial dilution
Outline: as §1

Enterobacter cloacae = test: MIC against Gram-negative bacteria: Enterobacter cloacae; settings: 5×10^5 CFU/mL; for MIC E. cloacae: two-fold serial dilution
Outline: as §1

Citrobacter diversus = test: MIC against Gram-negative bacteria: Citrobacter diversus; settings: 5×10^5 CFU/mL; for MIC C. diversus: two-fold serial dilution
Outline: as §1

[1] = Aeromonas hydrophila, 96-well plate, 37° C., 10 h
[2] = Serratia marcescens, 96-well plate, 37° C., 10 h
[3] = Pseudomonas aeruginosa, 96-well plate, 37° C., 10 h
[4] = Proteus vulgaris, 96-well plate, 37° C., 10 h
[5] = Klebsiella pneumonia, 96-well plate, 37° C., 10 h
[6] = Moraxella catarrhalis, 96-well plate, 37° C., 10 h
[7] = Proteus mirabilis, 96-well plate, 37° C., 10 h
[8] = Enterobacter cloacae, 96-well plate, 37° C., 10 h
[9] = Citrobacter diversus, 96-well plate, 37° C., 10 h

PRT1184 (NPNDCLPDPCHSRGRCYDLVNDFYCACDDGWKGKTCH; listed as Homo sapiens)
MIC E. coli BL21 (E. coli BL21; 10 h cultivation at 37° C.): 25 µg/mL | MIC A. hydrophila (Aeromonas hydrophila; 10 h cultivation at 37° C.): 12.5 µg/mL | MIC S. marcescens (Serratia marcescens; 10 h cultivation at 37° C.): 25 µg/mL | MIC P. aeruginosa (Pseudomonas aeruginosa; 10 h cultivation at 37° C.): 12.5 µg/mL | MIC P. vulgaris (Proteus vulgaris; 10 h cultivation at 37° C.): 12.5 µg/mL | MIC (E. coli DH5α): 50 µg/mL | MIC K. pneumonia (Klebsiella pneumonia; 10 h cultivation at 37° C.): 25 µg/mL | MIC M. catarrhalis (Moraxella catarrhalis; 10 h cultivation at 37° C.): 50 µg/mL | MIC P. mirabilis (Proteus mirabilis; 10 h cultivation at 37° C.): 25 µg/mL | MIC E. cloacae (Enterobacter cloacae; 10 h cultivation at 37° C.): 50 µg/mL | MIC C. diversus (Citrobacter diversus; 10 h cultivation at 37° C.): 25 µg/mL

PRT252 (TAACTNTSCSGHGECVETINNYTCKCDPGFSGLKCE; listed as Homo sapiens)
MIC (μg/mL) E. coli BL21 (E. coli BL21; 10 h cultivation at 37° C.): 12.5 µg/mL | MIC (μg/mL) A. hydrophila (Aeromonas hydrophila; A. hydrophila, 10 h cultivation at 37° C.): 12.5 µg/mL | MIC (μg/mL) S. marcescens (Serratia marcescens; S. marcescens, 10 h cultivation at 37° C.): 25 µg/mL | MIC (μg/mL) P. aeruginosa (Pseudomonas aeruginosa; P. aeruginosa, 10 h cultivation at 37° C.): 25 µg/mL | MIC (μg/mL) P. vulgaris (Proteus vulgaris; P. vulgaris, 10 h cultivation at 37° C.): 12.5 µg/mL | MIC (E. coli DH5α): 25 µg/mL | MIC (μg/mL) K. pneumonia (Klebsiella pneumonia; K. pneumonia, 10 h cultivation at 37° C.): 12.5 µg/mL | MIC (μg/mL) M. catarrhalis (Moraxella catarrhalis; M. catarrhalis, 10 h cultivation at 37° C.): 12.5 µg/mL | MIC (μg/mL) P. mirabilis (Proteus mirabilis; P. mirabilis, 10 h cultivation at 37° C.): 25 µg/mL | MIC (μg/mL) E. cloacae (Enterobacter cloacae; E. cloacae, 10 h cultivation at 37° C.): 25 µg/mL | MIC (μg/mL) C. diversus (Citrobacter diversus; C. diversus, 10 h cultivation at 37° C.): 25 µg/mL

PRT92 (VSDLCATGDHDCEQVCISSPGSYTCACHEGFTLNSDGKTCN; listed as Homo sapiens)
MIC (μg/mL) E. coli BL21 (E. coli BL21; 96-well plate, 37° C., 10 h): 12.5 µg/mL | MIC (μg/mL) A. hydrophila (Aeromonas hydrophila; [1]): 25 µg/mL | MIC (μg/mL) S. marcescens (Serratia marcescens; [2]): 12.5 µg/mL | MIC (μg/mL) P. aeruginosa (Pseudomonas aeruginosa; [3]): 50 µg/mL | MIC (μg/mL) P. vulgaris (Proteus vulgaris; [4]): 25 µg/mL | MIC (E. coli DH5α): 50 µg/mL | MIC (μg/mL) K. pneumonia (Klebsiella pneumonia; [5]): 12.5 µg/mL | MIC (μg/mL) M. catarrhalis (Moraxella catarrhalis; [6]): 25 µg/mL | MIC (μg/mL) P. mirabilis (Proteus mirabilis; [7]): 50 µg/mL | MIC (μg/mL) E. cloacae (Enterobacter cloacae; [8]): 50 µg/mL | MIC (μg/mL) C. diversus (Citrobacter diversus; [9]): 12.5 µg/mL

PRT1198 (EHDECGSGQHNCDENAICTNTVQGHSCTCKPGYVGNGTICR; listed as Homo sapiens)
MIC against E. coli BL21 (E. coli BL21; 96-well plate, 37° C., 10 h): 12.5 µg/mL | MIC against A. hydrophila (Aeromonas hydrophila; [1]): 50 µg/mL | MIC against S. marcescens (Serratia marcescens; [2]): 12.5 µg/mL | MIC against P. aeruginosa (Pseudomonas aeruginosa; [3]): 25 µg/mL | MIC against P. vulgaris (Proteus vulgaris; [4]): 25 µg/mL | MIC (E. coli DH5α): 25 µg/mL | MIC against K. pneumonia (Klebsiella pneumonia; [5]): 50 µg/mL | MIC against M. catarrhalis (Moraxella catarrhalis; [6]): 12.5 µg/mL | MIC against P. mirabilis (Proteus mirabilis; [7]): 50 µg/mL | MIC against E. cloacae (Enterobacter cloacae; [8]): 12.5 µg/mL | MIC against C. diversus (Citrobacter diversus; [9]): 25 µg/mL

PRT1068 (DINECLRFGTCSQLCNNTKGGHLCSCARNFMKTHNTCK; listed as Homo sapiens)
MIC E. coli BL21 (E. coli BL21; 10 h cultivation at 37° C.): 50 µg/mL | MIC A. hydrophila (Aeromonas hydrophila; 10 h cultivation at 37° C.): 50 µg/mL | MIC S. marcescens (Serratia marcescens; 10 h cultivation at 37° C.): 25 µg/mL | MIC P. aeruginosa (Pseudomonas aeruginosa; 10 h cultivation at 37° C.): 25 µg/mL | MIC P. vulgaris (Proteus vulgaris; 10 h cultivation at 37° C.): 50 µg/mL | MIC (E. coli DH5α): 12.5 µg/mL | MIC K. pneumonia (Klebsiella pneumonia; 10 h cultivation at 37° C.): 12.5 µg/mL | MIC M. catarrhalis (Moraxella catarrhalis; 10 h cultivation at 37° C.): 12.5 µg/mL | MIC P. mirabilis (Proteus mirabilis; 10 h cultivation at 37° C.): 25 µg/mL | MIC E. cloacae (Enterobacter cloacae; 10 h cultivation at 37° C.): 25 µg/mL | MIC C. diversus (Citrobacter diversus; 10 h cultivation at 37° C.): 25 µg/mL

PRT1273 (DVDECEREDNAGCVHDCVNIPGNYRCTCYDGFHLAHDGHNCL; listed as Homo sapiens)
MIC against E. coli BL21 (E. coli BL21; 96-well plate, 37° C., 10 h): 50 µg/mL | MIC against A. hydrophila (Aeromonas hydrophila; [1]): 50 µg/mL | MIC against S. marcescens (Serratia marcescens; [2]): 50 µg/mL | MIC against P. aeruginosa (Pseudomonas aeruginosa; [3]): 12.5 µg/mL | MIC against P. vulgaris (Proteus vulgaris; [4]): 12.5 µg/mL | MIC (E. coli DH5α): 12.5 µg/mL | MIC against K. pneumonia (Klebsiella pneumonia; [5]): 50 µg/mL | MIC against M. catarrhalis (Moraxella catarrhalis; [6]): 12.5 µg/mL | MIC against P. mirabilis (Proteus mirabilis; [7]): 50 µg/mL | MIC against E. cloacae (Enterobacter cloacae; [8]): 12.5 µg/mL | MIC against C. diversus (Citrobacter diversus; [9]): 25 µg/mL

PRT1284 (LVDLCSPDLNPCQHEAQCVGTPDGPRCECMPGYAGDNCS; listed as Homo sapiens)
MIC against E. coli BL21 (E. coli BL21; 96-well plate, 37° C., 10 h): 50 µg/mL | MIC against A. hydrophila (Aeromonas hydrophila; [1]): 12.5 µg/mL | MIC against S. marcescens (Serratia marcescens; [2]): 12.5 µg/mL | MIC against P. aeruginosa (Pseudomonas aeruginosa; [3]): 25 µg/mL | MIC against P. vulgaris (Proteus vulgaris; [4]): 25 µg/mL | MIC (E. coli DH5α): 25 µg/mL | MIC against K. pneumonia (Klebsiella pneumonia; [5]): 12.5 µg/mL | MIC against M. catarrhalis (Moraxella catarrhalis; [6]): 50 µg/mL | MIC against P. mirabilis (Proteus mirabilis; [7]): 12.5 µg/mL | MIC against E. cloacae (Enterobacter cloacae; [8]): 25 µg/mL | MIC against C. diversus (Citrobacter diversus; [9]): 12.5 µg/mL
